Results published in the NIST ThermoML archive (doi:10.1021/acs.jced.5b00606).
± gives the expanded uncertainty stated by the source.

Key:
[1] = Molar enthalpy of transition or fusion; details: Crystal; Drop ice or diphenyl ether calorimetry
[2] = for vapor or sublimation pressure: Liquid, Transpiration method

c1cn2ccnc2cn1 [imidazo[1,2-a]pyrazine]
Details	Molar enthalpy of transition or fusion [kcal/mol]
[1]	3.66 ± 0.621

[2]
Details	vapor or sublimation pressure [kPa]
369.6 K	0.1641 ± 0.018
373.8 K	0.2038 ± 0.022
379 K	0.2643 ± 0.028
383 K	0.34 ± 0.036
385.2 K	0.373 ± 0.04
388.2 K	0.4381 ± 0.047
390.2 K	0.4952 ± 0.053
393.4 K	0.5831 ± 0.062

Details	Triple point temperature [K]
[2], Crystal, DTA	359.2 ± 1.3
